Patent US11801242B2, “Compositions and methods for adjuvant cancer therapeutics” (DUKE UNIVERSITY, priority 2018, dated 2023)

Legend:
A375 cells = assay: qRT-PCR of p21 mRNA; format: cell-based, human; conditions: combination RE01 1.5 μM and cisplatin 1 μM
Protocol: Total RNA was isolated by using the RNeasy Mini kit (Qiagen) from cells treated with RE01 (1.5 μM), cisplatin (1 μM) and a combination of both RE01 (1.5 μM) and cisplatin (1 μM). 5 ng of RNA from each sample was mixed with 10 μl of Applied Biosystems™ PowerUp™ SYBR™ Green Master Mix (ThermoFisher), 1 μl of MultiScribe™ Reverse Transcriptase (ThermoFisher), 0.1 μl of RNaseOUT™ Recombinant Ribonuclease Inhibitor and 5.9 μl of RNase-free water, and run in a one-step qRT-PCR reaction. Each reaction was run in triplicate. Primers used were: p21 F 5′-[…]-3′ (SEQ ID NO: 9), p21 R 5-CGGCGTTTGGAGTGG TAGAAA-3′ (SEQ ID NO: 10); GAPDH F 5′-[…]-3′ (SEQ ID NO: 11), GAPDH R 5′-[…]-3′ (SEQ ID NO: 12).

Rev1^+/+ MEF cells = assay: HPRT mutagenesis assay; format: cell-based, mouse; conditions: RE01 1.5 μM, cisplatin 0.5 μM
Protocol: For the hypoxanthine-guanine phosphoribosyl transferase (HPRT) mutagenesis assay, cells were first grown in HAT (complete media with 100 μM Hypoxanthine, 0.4 μM Aminopterin and 16 μM Thymidine) media (ThermoFisher) for 14 days to weed out any spontaneous HPRT mutants. After HAT selection, cells were exposed to cisplatin at the 0.5 μM concentration for 24 hours. Then, in fresh media, RE01 at a concentration of 1.5 μM was added to cells. After 24 hours of drug treatment, cells were trypsinized and washed with PBS. While 200-600 cells were plated in complete media in triplicates in 6-well plates to determine clonal efficiency, the rest of the cells were plated in complete media to allow the expression of the phenotype for 8 days. Then, 500,000 cells per treatment were plated in sextuplicate in 10 cm dishes in 6-TG media to allow the proliferation of mutated HPRT^− cells. Colonies were fixed (50% methanol and 10% glacial acetic acid), stained (0.02% Coomassie brilliant blue R-250 stain in methanol: acetic acid: water in a ratio of 46.5:7:46.5 (v/v/v)), and counted after 14-20 days. The HPRT mutation frequency was calculated as the ratio of the number of HPRT^− colonies in 6-TG media to the number of surviving colonies plated in complete media to determine clonal efficiency.

[1] = molecular target: T1, REV1 CTD-REV7/3 interaction (Mus musculus, UniProt Q920Q2); assay: AlphaScreen assay, inhibition of the REV1 CTD-REV7/3 interaction; format: binding; conditions: fitting of the inhibition curve, inhibitor 0-25 μM, n=3
T1 construct: fused on or other part: FLAG tag at the N-terminus (after the TEV site; His10-GB1 solubility tag cleaved off); di-glycine linker between mouse POL kappa RIR K564-N577 and the REV1 CTD; Q9QUG2 (DNA polymerase kappa)
T1 sequence (Q920Q2 whole entry, looked up, the tested form may be a part): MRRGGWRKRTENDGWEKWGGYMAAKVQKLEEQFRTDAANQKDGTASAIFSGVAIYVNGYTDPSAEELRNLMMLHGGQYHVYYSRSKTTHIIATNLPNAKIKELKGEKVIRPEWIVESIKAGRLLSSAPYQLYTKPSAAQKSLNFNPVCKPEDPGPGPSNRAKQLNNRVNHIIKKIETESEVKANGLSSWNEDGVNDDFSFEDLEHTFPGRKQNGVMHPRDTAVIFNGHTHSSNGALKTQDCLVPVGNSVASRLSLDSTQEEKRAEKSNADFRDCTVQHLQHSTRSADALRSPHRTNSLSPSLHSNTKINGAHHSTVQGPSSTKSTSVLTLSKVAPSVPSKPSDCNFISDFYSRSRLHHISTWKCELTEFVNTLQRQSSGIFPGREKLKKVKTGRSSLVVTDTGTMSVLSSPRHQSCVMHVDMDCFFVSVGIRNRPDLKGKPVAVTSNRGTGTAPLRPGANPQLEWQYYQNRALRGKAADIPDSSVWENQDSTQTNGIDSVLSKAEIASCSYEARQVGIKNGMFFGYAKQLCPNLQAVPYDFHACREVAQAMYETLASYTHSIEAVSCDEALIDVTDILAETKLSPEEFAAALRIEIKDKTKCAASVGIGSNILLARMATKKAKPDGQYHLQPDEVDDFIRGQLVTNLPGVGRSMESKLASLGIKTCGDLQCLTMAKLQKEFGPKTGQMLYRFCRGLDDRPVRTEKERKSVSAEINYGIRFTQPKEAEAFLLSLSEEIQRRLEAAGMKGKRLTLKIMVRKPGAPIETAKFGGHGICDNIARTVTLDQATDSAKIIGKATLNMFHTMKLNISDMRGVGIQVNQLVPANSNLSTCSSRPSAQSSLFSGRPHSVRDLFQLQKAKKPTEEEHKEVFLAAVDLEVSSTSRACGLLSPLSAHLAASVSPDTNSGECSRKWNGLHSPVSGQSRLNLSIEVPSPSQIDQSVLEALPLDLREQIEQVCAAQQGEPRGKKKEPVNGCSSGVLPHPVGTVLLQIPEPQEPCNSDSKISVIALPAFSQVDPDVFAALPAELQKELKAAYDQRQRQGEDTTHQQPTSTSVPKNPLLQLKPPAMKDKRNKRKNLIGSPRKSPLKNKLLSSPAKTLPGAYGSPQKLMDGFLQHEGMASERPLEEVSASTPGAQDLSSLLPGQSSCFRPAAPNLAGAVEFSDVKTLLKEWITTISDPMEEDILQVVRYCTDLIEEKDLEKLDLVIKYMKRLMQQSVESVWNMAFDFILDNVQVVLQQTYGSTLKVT
Protocol: The FLAG-tagged mouse POL κ-REV1 CTD was diluted in PBS containing 1 mM Tris(2-carboxyethyl)phosphine (TCEP) and 0.005% Tween-20 at a final protein concentration of 1 nM and transferred to individual wells of a 96-well, half-area, white opaque plate (PerkinElmer). Serially diluted RE01 stock solutions in 50% DMSO were added to the wells to yield final inhibitor concentrations of 0-25 μM in 2% DMSO. After 30 min incubation, anti-FLAG Donor Beads (PerkinElmer) were added to a final concentration of 20 ng/μL to individual wells and incubated for an hour. His8-tagged mouse REV7/3 was subsequently added to the reaction mixture to a final concentration of 10 nM and incubated for 30 min. Anti-His Acceptor Beads (PerkinElmer) were added to a final concentration of 20 ng/μL and incubated for an hour.
Error bars represent standard error (n=3).

KP cells = assay: CellTiter-Glo Luminescence cell viability assay; format: cell-based, mouse
Protocol: Relative viability of cells in response to RE01 and DNA-damaging agents was assessed by the CellTiter-Glo Luminescence cell viability assay (Promega) that determines the number of viable cells based on the relative amount of ATP in the culture, which is directly proportional to the number of metabolically active cells. Briefly, 10,000 cells were plated in each well of a 96-well, white, clear flat bottom plate (Corning). Increasing doses of drugs in various combinations-RE01 alone or in combination with DNA-damaging agents-were added into the plates after 24 hours. The RE01 compound was dissolved in 0.1% DMSO and other drugs were dissolved in solvents ascribed by the manufacturer. In all cases, DMSO controls were run in parallel to the drug treatments. Cells were treated with DMSO or cisplatin (0.5 uM) for 24 hours, followed by RE01 (1.5 uM) treatment for additional 24 hours. Cells were washed and allowed to form colonies for 5-7 days and counted after staining with Coomassie brilliant blue R-250 stain. The relative viability of cells was monitored after 24 hours of drug treatment by adding CellTiter-Glo Luminescence stain to an equilibrated plate per the manufacturer's instructions. Luminescence was measured on the plate reader (Tecan Spark 10M). Relative luminescence, which is indicative of relative survival of metabolically active cells, was calculated by dividing the luminescence of treated samples with DMSO controls.
Viabilities of HT1080 (human fibrosarcoma), A375 (human melanoma), LNCap (human prostate adenocarcinoma), KP (mouse Kras^G12D;p53^−/− lung adenocarcinoma), and AG01522 (human primary fibroblasts) cells were assessed by the Promega CellTiter-Glo Luminescence cell viability assay. Relative luminescence intensities to samples treated with 0 μM RE01 (panel A) or with 0 μM DNA-damaging agents (panels B and C) are plotted. Blue lines represent single agent treatments, and orange lines represent RE01 combination treatments. […]

- IC50 [1]: 780 nM
SMILES: CC(C)CC(=O)c1c(Nc2ccc(Cl)cc2Cl)[nH]c2c(Cl)ccc([N+](=O)[O-])c2c1=O [RE01, 8-chloro-2-((2,4-dichlorophenyl)amino)-3-(3-methylbutanoyl)-5-nitroquinolin-4(1H)-one]
- levels of the p21 biomarker (A375 cells): elevated levels
- spontaneous or cisplatin-induced HPRT mutation rates (Rev1^+/+ MEF cells): significantly reduced
- sensitization to DNA-damaging agent (KP cells; RE01 1.5 μM with 4-nitroquinolone 1-oxide (4-NQO)): sensitized
- sensitization to DNA-damaging agent (KP cells; RE01 1.5 μM with benzo[a]pyrene diol epoxide (BPDE)): sensitized
- sensitization to DNA-damaging agent (KP cells; RE01 1.5 μM with methyl methanesulfonate (MMS)): sensitized
